Measured values: PMC9295122, “Sialic Acid Derivatives Inhibit SiaT Transporters and Delay Bacterial Growth” (ACS Chemical Biology, 2022)
“Also recorded” adds a separate entry of the source.

Test system: E. coli JW3193 ΔNanT expressing PmSiaT
Assay: Growth of E. coli JW3193 ΔNanT expressing PmSiaT
Format: cell-based, Escherichia coli
Settings: for effect on growth on sialic acid: 0.5 mM sialic acid + 1 mM inhibitor; for growth with inhibitor as only carbon source: 1 mM inhibitor
Excerpt: To further investigate bacterial growth inhibition, we employed a model system of E. coli JW3193 ΔNanT expressing the SaSiaT and PmSiaT transporters. We designed these experiments to test if compounds 3e and 3f could inhibit the Neu5Ac transport in vivo because, without an active sialic acid transporter, E. coli JW3193 ΔNanT cannot grow on Neu5Ac.[16],[21]
For the bacterial growth experiments, the pJ422-01 plasmid containing the relevant SiaT or NanT gene was transformed into the E. coli JW3193 ΔnanT strain.[21] Throughout the experiments, strains containing the pJ422-01 plasmid were grown in media supplemented with 25 μg/mL Zeocin. E. coli BW25113, empty E. coli JW3193, and E. coli JW3193 with pJ422-01 containing the NanT gene were also used as controls. Strains were initially plated out from glycerol stocks before a single colony was picked and grown overnight in low salt LB media at 37 °C, with shaking at 180 rpm. Overnight cultures were diluted to an OD600 of 0.05 using low salt LB [supplemented with 1 mM isopropyl β-D-1-thiogalactopyranoside (IPTG)], before they were incubated at 37 °C, with shaking at 250 rpm, until they reached an OD600 of 0.3. At this point, 5 mL of each culture was centrifuged at 6000g for 5 min at 25 °C. The supernatants were removed and the cell pellets were resuspended in 5 mL of M9 MM without glucose prior to being centrifuged again at 6000g for 5 min at 25 °C. This wash step was repeated twice more before cells were resuspended to an OD600 of 0.5 in M9 MM without glucose. A Corning Costar Flat Bottom 96 Well TC-treated microplate was set up with 180 μL of M9 MM containing 1 mM IPTG (for the pJ422-01 strains) and either 5 mM glucose, 0.5 mM sialic acid, and 0.5 mM sialic acid with 1 mM of either inhibitor, or 1 mM of either inhibitor as a carbon source. To the 180 μL of media, 20 μL of each culture were added to the plate (OD600 of 0.05), before it was loaded into a FLUOstar Omega microplate reader (BMG Labtech). Growth was recorded at 600 nm every 10 min at 37 °C, with shaking at 300 rpm. Growth curves represent the mean and standard deviation of measurement from triplicate measurements (glucose/no carbon source in duplicate).
Fig. S5. Growth of E. coli JW3193 ΔNanT expressing the SaSiaT and PmSiaT transporters from a plasmid and using various carbon sources and in the presence or absence of inhibitors, 3e and 3f. […]
(B) PmSiaT is again expressed from a plasmid in the E. coli strain JW3193 ΔNanT, where the native sialic acid transporter (NanT) is deleted. The strain grows normally when in media with glucose (black line). There is no growth in the absence of any carbon source (grey line). In the presence of sialic acid at 0.5 mM the strain grows to an OD of ~0.5 (red line), showing that the transporter is functional. […]
substrates. […]

CC(=O)NC1C(OCc2cc(F)cc(F)c2)CC(O)(C(=O)O)OC1C(O)C(O)CO (stereo not shown) [Compound 3e]
effect on growth on sialic acid: no effect on growth; also recorded: neither inhibitor seemed to alter bacterial growth | growth with inhibitor as only carbon source: no growth

CC(=O)NC1C(OCc2cc(Br)cc(Br)c2)CC(O)(C(=O)O)OC1C(O)C(O)CO (stereo not shown) [Compound 3f]
effect on growth on sialic acid: no effect on growth; also recorded: neither inhibitor seemed to alter bacterial growth | growth with inhibitor as only carbon source: no growth
